Laboratory results as given in PubChem BioAssay (NCI).
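Briefly, cells in 96-well plates were exposed to five compound concentrations for 48 h, and endpoints were estimated by linear interpolation. TGI: total growth inhibition.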

Legend:
Experiment in all cases: NCI anticancer screen, dose series, 48 h
786-0 renal = tested on: 786-0 renal
A498 renal = tested on: A498 renal
A549 NSCLC = tested on: A549 NSCLC
ACHN renal = tested on: ACHN renal
BT-549 breast = tested on: BT-549 breast
CAKI-1 renal = tested on: CAKI-1 renal
CCRF-CEM leukemia = tested on: CCRF-CEM leukemia
COLO 205 colon = tested on: COLO 205 colon
DU-145 prostate = tested on: DU-145 prostate
EKVX NSCLC = tested on: EKVX NSCLC
HCC-2998 colon = tested on: HCC-2998 colon
HCT-116 colon = tested on: HCT-116 colon
HCT-15 colon = tested on: HCT-15 colon
HL-60(TB) leukemia = tested on: HL-60(TB) leukemia
HOP-62 NSCLC = tested on: HOP-62 NSCLC
HOP-92 NSCLC = tested on: HOP-92 NSCLC
HS 578T breast = tested on: HS 578T breast
HT29 colon = tested on: HT29 colon
IGROV1 ovarian = tested on: IGROV1 ovarian
K-562 leukemia = tested on: K-562 leukemia
KM12 colon = tested on: KM12 colon
M14 melanoma = tested on: M14 melanoma
MALME-3M melanoma = tested on: MALME-3M melanoma
MCF7 breast = tested on: MCF7 breast
MDA-MB-231 breast = tested on: MDA-MB-231 breast
MDA-MB-435 = tested on: MDA-MB-435
MDA-N = tested on: MDA-N
MOLT-4 leukemia = tested on: MOLT-4 leukemia
NCI-H226 lung = tested on: NCI-H226 lung
NCI-H23 lung = tested on: NCI-H23 lung
NCI-H460 lung = tested on: NCI-H460 lung
NCI-H522 lung = tested on: NCI-H522 lung
NCI/ADR-RES ovarian = tested on: NCI/ADR-RES ovarian
OVCAR-3 ovarian = tested on: OVCAR-3 ovarian
OVCAR-4 ovarian = tested on: OVCAR-4 ovarian
OVCAR-5 ovarian = tested on: OVCAR-5 ovarian
OVCAR-8 ovarian = tested on: OVCAR-8 ovarian
PC-3 prostate = tested on: PC-3 prostate
RPMI-8226 leukemia = tested on: RPMI-8226 leukemia
RXF 393 renal = tested on: RXF 393 renal
SF-268 CNS = tested on: SF-268 CNS
SF-295 CNS = tested on: SF-295 CNS
SF-539 CNS = tested on: SF-539 CNS
SK-MEL-2 melanoma = tested on: SK-MEL-2 melanoma
SK-MEL-28 melanoma = tested on: SK-MEL-28 melanoma
SK-MEL-5 melanoma = tested on: SK-MEL-5 melanoma
SK-OV-3 ovarian = tested on: SK-OV-3 ovarian
SN12C renal = tested on: SN12C renal
SNB-19 CNS = tested on: SNB-19 CNS
SNB-75 CNS = tested on: SNB-75 CNS
SR leukemia = tested on: SR leukemia
SW-620 colon = tested on: SW-620 colon
T-47D breast = tested on: T-47D breast
TK-10 renal = tested on: TK-10 renal
U251 CNS = tested on: U251 CNS
UACC-257 melanoma = tested on: UACC-257 melanoma
UACC-62 melanoma = tested on: UACC-62 melanoma
UO-31 renal = tested on: UO-31 renal

Measured: TGI

O=S(=O)(c1ccccc1)[C@H]1[C@@H]2O[C@@H]2C[C@@H]1O
> 100 µM: all assays above

Clc1ccc(-c2noc(CN3CCCCC3)n2)cc1
> 100 µM: all assays above
